Like-named read-outs stand apart in the source and are kept apart here.
Columns and labels:
[1] = tested on: P. falciparum Cam3.II^R539T; experiment: 3 h pulsed exposure viability assay, K13 mutant early rings; format: cell-based, Plasmodium falciparum; conditions: for Cam3.II^R539T LD50 (3 h): early ring (1–3 h p.i.), 3 h pulse, viability in next cycle, mean ± SEM, n=3; for Cam3.IIR539T LD50 (3-h): supplement CSV
Protocol: (§1) For standard assays of antiplasmodial activity, sorbitol-treated ring stage parasites were incubated with the drugs for 72 h and viability was assessed in the second cycle.[12] Drug pulse assays were performed as described previously.[47] For short pulse assays, tightly synchronized early ring stage parasites (1–3 h after invasion) at 0.2% hematocrit and 1–2% parasitemia were subjected to 3 h drug pulse at 37 °C and returned to culture until parasites reached trophozoite stage of the following cycle. Cells were then stained with 2 μM Syto-61 (Thermo Fisher Scientific), and their fluorescence was measured by flow cytometry (FACSCanto II cytometer; Becton Dickinson). Data were gated and analyzed using FCS Express software (version 3) to determine parasitemia of each sample. Viability represents the parasitemia normalized to untreated and “kill treated” controls, where “kill treated” refers to samples treated with 2 μM DHA for 48–72 h. Interactions between DHA and MPI-1 or MPI-4 against the K13 mutant (DHA resistant) Cam3.II P. falciparum strain, exposed to a 3 h pulsed treatment, were determined at 4 h after invasion as described previously.[12]

[2] = tested on: Pf20S proteasome subunits of bortezomib-resistant parasites; experiment: BMV037 active site probe competition, bortezomib-resistant parasites; format: biochemical, P. falciparum; conditions: compounds 1 h
Protocol: Figure 3 Active site probe analysis of the proteasome subunit specificity of the selected compounds in 3D7 parent and bortezomib-resistant parasites. Purified Pf20S proteasome from wild-type 3D7 (A) and bortezomib-resistant (C) parasites or wild-type 3D7 (B) and bortezomib-resistant (D) trophozoite-infected erythrocytes were treated with compounds for 1 h, and activity-based probe (BMV037) labeling was performed (postlysis for the trophozoite samples). Fluorescent gel scans reveal subunits that remain active after treatment.
P. falciparum culture, purified Pf20S proteasomes, human constitutive proteasomes, or immunoproteasomes (Boston Biochem) were incubated with test compounds at 37 °C for 1 h. Treated parasite lysates (10 μg), Pf20S proteasomes (80 nM), human constitutive proteasomes (20 nM), or immuno-20S proteasomes (20 nM) were labeled with BMV037 (10 μM) at 37 °C for 2 h. Samples were mixed with SDS loading buffer and heated at 95 °C for 5 min. Samples for P. falciparum and human immuno-20S were run on 4–12% Bis-Tris acrylamide gels using MES SDS running buffer (Thermo Fisher Scientific). Human constitutive 20S samples were run on a 10% Bis-Tris acrylamide gel using MOPS SDS running buffer (Thermo Fisher Scientific). Gels were imaged at the Cy5 channel on a Gel Doc XR+ Documentation System (Bio-Rad) or an Amersham Typhoon Trio imager (GE Healthcare Life Sciences).

[3] = tested on: HCT116 cells; experiment: HCT116 cellular toxicity (CellTiter-Glo, 72 h); format: cell-based, human; conditions: for HCT116 LD50 (72 h): 72 h incubation, mean ± SEM or half range, 2–4 experiments; for HCT116 LD50 (72-h): supplement CSV
Protocol: HCT-116 and HepG2 cells were obtained from the American Type Culture Collection and maintained as recommended by the supplier. Cells were cultured in the ATCC-formulated McCoy’s 5A medium or DMEM (Life Technologies, CA), supplemented with fetal bovine serum to a final concentration of 9–10%, and incubated at 37 °C in an atmosphere of 95% air and 5% CO2. Cellular toxicity assays were performed using Promega’s CellTiter-Glo assay system. Varying concentrations of the test compounds in 5% DMSO/95% PBS were dispensed into a 384-well plate and cells added to each well. The plates were incubated at 37 °C for 72 h, and the CellTiter-Glo assay to assess cell viability was performed as described by the manufacturer (Promega).
For human cell line activity assays, cellular toxicity assays were performed as described previously.[23],[48]

[4] = tested on: Pf20S proteasome β1, β2, β5 subunits; format: biochemical, P. falciparum
[5] = tested on: bortezomib-resistant 3D7 B1 line (clone B1a); experiment: 72 h viability assay, bortezomib-resistant B1 line / clone B1a; format: cell-based, Plasmodium falciparum; conditions: for bortezomib-resistant 3D7 B1 line LD50 (72 h): ring stage; for Bortezomib-resistant3D7 B1 LD50 (72-h): supplement CSV
Protocol: as §1
Prior to selection, an aliquot of the parental line was stocked as a reference for subsequent whole genome sequencing analysis. Several independent clones of P. falciparum 3D7 parasite line were cultured in Petri dishes exposed to increasing drug pressure for ∼30 weeks. Parasites were cloned by limiting dilution. For parasite extraction and genomic DNA isolation, cultures were scaled up to at least 4–5% parasitaemia, lysed in saponin, and genomic DNA was isolated using ISOLATE II Genomic DNA kit (Bioline). DNA libraries for each gDNA sample were prepared for sequencing using the Nextera XT kit as described previously.[50] Libraries were clustered and run on an Illumina HiSeq 2500 using the RapidRun mode, sequencing 100 base pairs in depth on either end. Paired-end reads were either aligned to the P. falciparum 3D7 reference genome (PlasmoDB version 13.0).

[6] = tested on: human constitutive proteasome and immunoproteasome catalytic subunits; experiment: BMV037 active site probe competition, purified human 20S proteasomes; format: biochemical; conditions: for subunit specificity by BMV037 probe labeling, human constitutive proteasome and immunoproteasome: compounds 1 h, probe 2 h
[7] = tested on: HepG2 cells; experiment: HepG2 cellular toxicity (CellTiter-Glo, 72 h); format: cell-based, human; conditions: for HepG2 LD50 (72 h): 72 h incubation, mean ± SEM or half range, 2–4 experiments; for HepG2 LD50( 72-h): supplement CSV
[8] = tested on: P. falciparum Cam3.II^Rev; experiment: 3 h pulsed exposure viability assay, K13 wild-type revertant early rings; format: cell-based, Plasmodium falciparum; conditions: for Cam3.II^Rev LD50 (3 h): early ring (1–3 h p.i.), 3 h pulse, viability in next cycle, mean ± SEM, n=3; for Cam3.IIRev LD50 (3-h): supplement CSV
Protocol: as §1

[9] = tested on: P. falciparum 3D7 parasites; experiment: Standard 72 h antiplasmodial viability assay, 3D7; format: cell-based, Plasmodium falciparum; conditions: for Pf3D7 LD50 (72 h): sorbitol-treated ring stage, viability in next cycle (~72 h); for Pf3D7 LD50 (72-h): supplement CSV
Protocol: P. falciparum parasites used in this study were propagated in O+ human erythrocytes (Australian Red Cross Blood Service) in RPMI-1640, supplemented with GlutaMAX, 25 mM HEPES (Thermo Fisher Scientific), 5% (v/v) human serum (Australian Red Cross Blood Service), 0.25% (w/v) AlbuMAX II (Thermo Fisher Scientific), 10 μM D-glucose, 22 μg/mL gentamycin (Sigma-Aldrich), and 0.5 mM hypoxanthine (Sigma-Aldrich) and incubated at 37 °C in an atmosphere of 1% O2, 5% CO2, and 94% N2. Cultures were monitored by Giemsa staining of methanol-fixed blood smears. Culture medium was replaced at least every 48 h, and parasitemia was maintained below 10% to ensure health of cultures. The GFP-DD reporter strain was kindly provided by Dr. Paul Gilson, Dr. Brendan Crabb, and Dr. Mauro F. Azevedo (Burnet Institute).
as §1

[10] = compounds 1 h, purified Pf20S or infected erythrocytes

Row | Structure (SMILES) | Cam3.II^R539T LD50 (3 h) [1] | Cam3.IIR539T LD50 (3-h) [1] | BMV037 labeling of the β5 active site in bortezomib-resistant parasites [2] | HCT116 LD50 (72 h) [3] | HCT116 LD50 (72-h) [3] | subunit specificity by BMV037 probe labeling, wild-type 3D7 [4, 10] | bortezomib-resistant 3D7 B1 line LD50 (72 h) ([5]; mean ± SEM, n=3) | Bortezomib-resistant3D7 B1 LD50 (72-h) [5] | subunit specificity by BMV037 probe labeling, human constitutive proteasome and immunoproteasome [6] | HepG2 LD50 (72 h) [7] | HepG2 LD50( 72-h) [7] | Cam3.II^Rev LD50 (3 h) [8] | Cam3.IIRev LD50 (3-h) [8] | Pf3D7 LD50 (72 h) ([9]; mean ± SEM, n=3) | Pf3D7 LD50 (72-h) [9] | other results
1 | CC(C)C[C@H](NC(=O)[C@H](Cc1ccccc1)NC(=O)Cc1ccc(O)cc1)B(O)O [MPI-4] | 0.16 ± 0.01 µM | 0.16 ± 0.01 µM | did not prevent labeling of the β5 active site | 0.025 ± 0.014 µM | 0.025 ± 0.014 µM | inhibited both β2 and β5 activities | 0.077 ± 0.001 µM | 0.077 ± 0.001 µM | preferential inhibition of the β1 and β5 subunits | 0.04 ± 0.01 µM | 0.04 ± 0.01 µM | 0.18 ± 0.02 µM | 0.18 ± 0.02 µM | 0.061 ± 0.007 µM | 0.061 ± 0.007 µM | BMV037 labeling of the β2 active site in bortezomib-resistant parasites [2]: completely inhibit BMV037 labeling of the β2 active site; cross-resistance of the bortezomib-resistant parasite line (B1) ([5]; growth inhibition, versus 3D7): retained sensitivity
2 | CC(C)C[C@H](NC(=O)[C@H](Cc1ccccc1)NC(=O)c1cnccn1)B(O)O [bortezomib, reference compound] | 0.12 ± 0.02 µM | 0.12 ± 0.02 µM | – | 0.006 ± 0.001 µM | 0.006 ± 0.001 µM | – | – | 1.3 ± 0.1 µM | preferentially inhibits the β1 and β5 subunits | 0.03 ± 0.02 µM | 0.03 ± 0.02 µM | 0.18 ± 0.06 µM | 0.18 ± 0.06 µM | 0.06 ± 0.01 µM | 0.06 ± 0.01 µM | BMV037 competition profile in bortezomib-resistant parasites [2]: unable to prevent binding of the probe; subunit specificity by BMV037 probe labeling, wild-type 3D7 [4]: preferential inhibition of the β5 activity; LD50 (72 h), 3D7 B1a ([5]; bortezomib, resistant clone B1a, mean ± SEM, n=3): 1.3 ± 0.1 µM; IC50 ([9]; Plasmodium falciparum, 3D7, dose–response profiles, n = 3, read-out: 50% viability inhibitory concentration against 3D7 parasites): ~60 nM; LD50 (72 h), 3D7 parent ([9]; bortezomib, wild-type parent clone, mean ± SEM, n=3): 0.06 ± 0.01 µM
3 | CC(=O)N1CCC[C@@H]1C(=O)N[C@@H](C)C(=O)N[C@@H](Cc1ccccc1)B(O)O [MPI-1] | 0.82 ± 0.06 µM | 0.82 ± 0.06 µM | still able to prevent BMV037 labeling of the β5 active site | 0.79 ± 0.01 µM | 0.79 ± 0.01 µM | preferentially inhibited binding of the probe to the β5 subunit | 0.23 ± 0.04 µM | 0.23 ± 0.04 µM | preferentially targeted the β5 subunits | 6.7 ± 3.2 µM | 6.7 ± 3.2 µM | 0.9 ± 0.1 µM | 0.9 ± 0.1 µM | 0.12 ± 0.01 µM | 0.12 ± 0.01 µM | binding of the BMV037 probe to β5c after treatment ([6]; 10 μM): did not completely ablate binding of the probe to β5c
